The values that follow come from PMC7339578, “Multiple circulating alkaloids and saponins from intravenous Kang-Ai injection inhibit human cytochrome P450 and UDP-glucuronosyltransferase isozymes: potential drug–drug interactions” (Chinese Medicine, 2020).

The subject of one series is CYP and UGT enzymes. Description: Inhibition of the panel of eight CYP and three UGT isozymes (statements over all enzymes). The conditions noted are these: compound 100 μM. Format: in vitro ADME, human. The protocol:
After centrifugation (13,800g, 10 min), the supernatant (8 μL) was obtained for determination by UHPLC system.
In this study, phenacetin (100 μM), coumarin (100 μM), bupropion (100 μM), paclitaxel (60 μM), tolbutamide (200 μM), mephenytoin (100 μM), chlorzoxazone (200 μM) and nifedipine (40 μM) have been used as the probe substrates for CYP1A2, 2A6, 2B6, 2C8, 2C9, 2C19, 2E1 and 3A4, respectively.
Similarly, β-estradiol (60 μM), propofol (40 μM) and 4-MU (350 μM) were typically used as the substrates for UGT1A1, 1A9 and 2B7, respectively. After optimization of incubation conditions (Additional file 1: Fig. S2), the protein concentrations for UGT1A1, 1A9, and 2B7 were 0.125, 0.05, and 0.05 mg/mL, respectively.

Another series addresses CYP2E1 (Homo sapiens, UniProt P05181). The series is described as follows: Inhibition of recombinant CYP2E1 (probe chlorzoxazone). As for the experimental part:
Phase I incubation system (100 μL) contained Tris–HCl buffer (50 mM, pH = 7.4), MgCl2 (5 mM), each CYP isozyme, specific substrates, circulating compounds and NADPH (1 mM) as prescribed previously. After incubation (37 °C, 60 min), the reaction was terminated by ice-cold acetonitrile (100 μL), following by centrifugation at 13,800g for 10 min. The supernatant (8 μL) was acquired for ultra-high-performance liquid chromatography (UHPLC) system (Waters, Manchester, UK) analysis.
After optimization of incubation conditions (Additional file 1: Fig. S1), the substrates were incubated with each CYP isozyme at different protein concentrations (0.05 mg/mL for CYP1A2 and 3A4; 0.1 mg/mL for CYP2A6, 2B6, 2C8, 2C9, 2C19 and 2E1) in the absence (control) and presence of different mixture or herbal compounds (Kang-Ai injection and samples that Kang-Ai injection was diluted 10 times; 1, 10, and 100 μM for matrine and oxymatrine; 0.1, 1, 10 and 100 μM for astragalosides and ginsenosides).
The half-inhibition concentration (IC50) values were determined by non-linear regression analysis. […] The inhibition mechanism towards corresponding CYP and UGT isoforms were further explored.
The inhibition constant (Ki) values were obtained by multiple concentrations of substrates in the absence or presence of multiple concentrations of herbal compounds as described previously. […] (1)–(3), respectively. The model with the smallest Akaike information criterion (AIC) and Schwartz information criterion (SC) values was considered as the best model, following the obtained appropriate Ki values. Model fitting and parameter estimation were performed using Graphpad Prism V5 software (SanDiego, CA).

Details of series [1]: method as in earlier work. The conditions noted are these: rat plasma; oxymatrine 30 mg/kg intravenously; cited from earlier work.
The next series deals with CYP3A4. On the set-up: method as in PMID 26586934. Particulars: CYP3A4 isozyme; read-out: Km (metabolism to matrine); cited from earlier work.
On the set-up of series [2]: method as in PMID 26586934. The conditions noted are these: HIM; read-out: Km (metabolism to matrine); cited from earlier work.
Series [3] deals with SW-620, BGC823, A375 cells. Also on record: method as in PMID 31283981. The conditions noted are these: cited from earlier work.
Series [4] has as its system HepG2, MCF-7, HeLa, A549 cells. On the set-up: method as in PMID 31283981. Particulars: cited from earlier work.
Details of series [5]: method as in PMID 26586934. The conditions noted are these: pooled HLM; read-out: Km (metabolism to matrine); cited from earlier work.
The test system of another series is P-gp. On the set-up: method as in PMID 24380838. The conditions noted are these: cited from earlier work; for inhibition of P-gp: in vitro and in vivo.
Details of series [6]: method as in PMID 16500065. Particulars: intravenous infusion of 600 mg oxymatrine, healthy male volunteers; cited from earlier work.
A further series has as its system NTCP. On the set-up: method as in PMID 30978651. The conditions noted are these: cited from earlier work.

Read-outs that look alike come from different tables or passages of the source.

Chain of CYP2E1 (P05181 whole entry): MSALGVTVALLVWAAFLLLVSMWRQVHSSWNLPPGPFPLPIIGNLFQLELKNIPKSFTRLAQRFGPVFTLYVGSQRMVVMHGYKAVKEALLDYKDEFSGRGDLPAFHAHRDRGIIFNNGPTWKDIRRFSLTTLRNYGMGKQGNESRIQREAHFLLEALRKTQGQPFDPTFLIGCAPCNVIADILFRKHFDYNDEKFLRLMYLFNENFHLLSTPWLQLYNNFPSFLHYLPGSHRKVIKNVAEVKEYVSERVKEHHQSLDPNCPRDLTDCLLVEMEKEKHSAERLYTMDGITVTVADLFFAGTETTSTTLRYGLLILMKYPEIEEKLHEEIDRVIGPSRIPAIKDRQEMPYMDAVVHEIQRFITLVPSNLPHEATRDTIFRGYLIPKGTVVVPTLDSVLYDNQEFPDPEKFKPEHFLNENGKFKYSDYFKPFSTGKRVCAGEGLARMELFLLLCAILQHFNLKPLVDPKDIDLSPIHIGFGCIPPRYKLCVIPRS

For `CC(C)=CCC[C@](C)(O)[C@H]1CC[C@]2(C)[C@@H]1[C@H](O)C[C@@H]1[C@@]3(C)CC[C@H](O)C(C)(C)[C@@H]3[C@@H](O[C@@H]3O[C@H](CO)[C@@H](O)[C@H](O)[C@H]3O[C@@H]3O[C@H](CO)[C@@H](O)[C@H](O)[C@H]3O)C[C@]12C` [Compound C7, Ginsenoside Rf], in the series with CYP and UGT enzymes, the “changes against these CYP and UGT enzymes” value was “almost no changes”. Besides, the concentration for half-maximal inhibition (IC50) on CYP2E1 was greater than 100 µM.
On to `O=C1CCC[C@@H]2[C@H]3CCC[N+]4([O-])CCC[C@@H](CN12)[C@@H]34` (stereo partly drawn) [Compound A3, Oxymatrine], for which, in series [1], the “AUC0–12h” value was 16234.27 ng·h/mL, the CL is listed as 3.10 L/h, the Cmax is 32847.57 ng/mL and the t1/2 is 34.2 min. Besides, the Km in the series on CYP3A4 is 341 µM. The Km in series [2] is 150 µM. In addition, in series [3], the “effective concentrations to inhibit tumor cell viability” value was 0.10 to 40.00 µmol/L. The “reported effective concentrations (IC50 or EC50 values)” value in [4] is 473.48 to 3787.84 µM. The IC50 at CYP2E1 was greater than 100 µM. In addition, the Km in series [5] is 221 µM. For the same compound, the “inhibition of P-gp” value in the series on P-gp was “did not demonstrate the inhibition of P-gp”. For the same compound, the “fraction of oxymatrine reduced to matrine” value in series [6] was “about 19.9%”.
Take `O=C1CCC[C@@H]2[C@H]3CCCN4CCC[C@@H](CN12)[C@@H]34` [Compound A1, Matrine]: the IC50 at CYP2E1 was greater than 100 µM. Besides, the “inhibition of P-gp” value in the series with P-gp is reported as “did not demonstrate the inhibition of P-gp”.
As to `CC(C)=CCC[C@](C)(O[C@@H]1O[C@H](CO[C@@H]2O[C@H](CO)[C@@H](O)[C@H](O)[C@H]2O)[C@@H](O)[C@H](O)[C@H]1O)[C@H]1CC[C@]2(C)[C@@H]1[C@H](O)C[C@@H]1[C@@]3(C)CC[C@H](O[C@@H]4O[C@H](CO)[C@@H](O)[C@H](O)[C@H]4O[C@@H]4O[C@H](CO)[C@@H](O)[C@H](O)[C@H]4O)C(C)(C)[C@@H]3CC[C@]12C` [Compound D5, Ginsenoside Rb1], at CYP2E1, the IC50 is greater than 100 µM.
On the same count and under the same terms, the figure for `CC(C)=CCC[C@](C)(O[C@@H]1O[C@H](CO[C@@H]2O[C@@H](CO)[C@H](O)[C@H]2O)[C@@H](O)[C@H](O)[C@H]1O)[C@H]1CC[C@]2(C)[C@@H]1[C@H](O)C[C@@H]1[C@@]3(C)CC[C@H](O[C@@H]4O[C@H](CO)[C@@H](O)[C@H](O)[C@H]4O[C@@H]4O[C@H](CO)[C@@H](O)[C@H](O)[C@H]4O)C(C)(C)[C@@H]3CC[C@]12C` [Compound D3, Ginsenoside Rc] is greater than 100 µM.
Turning to `CC(C)=CCC[C@](C)(O[C@@H]1O[C@H](CO)[C@@H](O)[C@H](O)[C@H]1O)[C@H]1CC[C@]2(C)[C@@H]1[C@H](O)C[C@@H]1[C@@]3(C)CC[C@H](O)C(C)(C)[C@@H]3[C@@H](O[C@@H]3O[C@H](CO)[C@@H](O)[C@H](O)[C@H]3O[C@@H]3O[C@@H](C)[C@H](O)[C@@H](O)[C@H]3O)C[C@]12C` [Compound C9, Ginsenoside Re], the IC50 on CYP2E1 is greater than 100 µM.
On to `CC(C)=CCC[C@](C)(O[C@@H]1O[C@H](CO)[C@@H](O)[C@H](O)[C@H]1O)[C@H]1CC[C@]2(C)[C@@H]1[C@H](O)C[C@@H]1[C@@]3(C)CC[C@H](O)C(C)(C)[C@@H]3[C@@H](O[C@@H]3O[C@H](CO)[C@@H](O)[C@H](O)[C@H]3O)C[C@]12C` [Compound C6, Ginsenoside Rg1], for which the IC50 in the series with NTCP is 50.5 µM; on CYP2E1, greater than 100 µM.
For `CC(C)=CCC[C@](C)(O[C@@H]1O[C@H](CO)[C@@H](O)[C@H](O)[C@H]1O)[C@H]1CC[C@]2(C)[C@@H]1[C@H](O)C[C@@H]1[C@@]3(C)CC[C@H](O[C@@H]4O[C@H](CO)[C@@H](O)[C@H](O)[C@H]4O[C@@H]4O[C@H](CO)[C@@H](O)[C@H](O)[C@H]4O)C(C)(C)[C@@H]3CC[C@]12C` [Compound D2, Ginsenoside Rd], at CYP2E1, the IC50 was greater than 100 µM.
For the compound `CC(C)(O)[C@@H]1CC[C@](C)([C@H]2[C@@H](O)C[C@@]3(C)[C@@H]4C[C@H](O[C@@H]5O[C@H](CO)[C@@H](O)[C@H](O)[C@H]5O)[C@H]5C(C)(C)[C@@H](O[C@@H]6OC[C@@H](O)[C@H](O)[C@H]6O)CC[C@@]56C[C@@]46CC[C@]23C)O1` [Compound B2, Astragaloside IV], at CYP2E1 (read-out: IC50 towards CYP2E1, recombinant isozyme, mean ± SD of triplicate, unit not given (IC50 classes in μM)), the IC50 is greater than 100 µM. Further, in the series with P-gp (MDR1-MDCKII cells, 100 μM), the inhibition activity is 8.22%.
